From PMC9954146, “Anti-Leukaemic Activity of Rilpivirine Is Mediated by Aurora A Kinase Inhibition” (Cancers, 2023)

How the values were obtained:
[1] = molecular target: T1, LYN (Homo sapiens, UniProt P07948); test: Radioisotope-based kinase assay (Ki); type: biochemical; settings: apparent Ki from IC50 and Km (ATP)
T1 construct: purchased Reaction Biology Corporation (assay service)
Method: (§1) Kinome-wide selectivity of rilpivirine was measured using the kinase screening and profiling service of Eurofins Scientific (Le bois l’Evêque 86600. Celle-Lévescault, France) and Ki values were determined using radioisotope-based assays by Reaction Biology Corporation (Malvern, PA, USA). The experimental details of Eurofin Scientific and Reaction Biology services for relevant assays are available at https://www.eurofinsdiscoveryservices.com/services/in-Vitro-assays/kinases/kinase-profiler (accessed on 7 July 2021) and https://www.reactionbiology.com (accessed on 7 July 2021), respectively. Ki values were estimated from the corresponding IC50 values using the Cheng–Prusoff equation [21] and the Km (ATP) of individual kinase was used for IC50 determination.

[2] = molecular target: T2, YES (Homo sapiens, UniProt P07947); test: Radioisotope-based kinase assay (Ki); type: biochemical; settings: apparent Ki from IC50 and Km (ATP)
T2 construct: purchased Reaction Biology Corporation (assay service)
Method: as §1

[3] = test system: PIM1; test: Radioisotope-based kinase assay (Ki); type: biochemical; settings: PIM1 vs Aurora A
Method: as §1

[4] = test system: NB4 cells; test: Resazurin cell viability assay; type: cell-based; settings: Homo sapiens
Method: (§2) Cell viability was determined by a resazurin-based assay as described previously. Briefly, 5 × 10^3 cells/well were seeded into 96-well plates (Corning Inc., Corning, NY, USA) in 180 µL of RPMI 1640 medium and incubated overnight at 37 °C with 5% CO2. Next day, cells were treated with rilpivirine after serially diluted (1:2 dilution for final concentrations ranging from 0.625 µM to 40 µM) or DMSO (0.1%) for specified time periods (24, 48, or 72 h). At the end of the treatment period, 20 µL of resazurin (0.1 mg/mL in PBS) was added per well and incubated for further 4 h. Fluorescence intensities were recorded at 570 nm (excitation)/585 nm (emission) using an EnVision® multilabel plate reader (PerkinElmer, MA, USA). Drug concentrations required for cell viability reduction by 50% (GI50) compared with untreated (DMSO vehicle-treated only) control were determined by a non-linear regression model using GraphPad Prism software version 7.02 (La Jolla, CA, USA).

[5] = test system: U-937 cells; test: Resazurin cell viability assay; type: cell-based; settings: Homo sapiens
Method: as §2

[6] = test system: NB4 cells; test: Colony formation assay; type: cell-based, human; settings: 2.5, 5, or 10 µM, 10 days
Method: (§3) For colony formation assay, 2 × 10^3 cells/well (in 6-well plates) were treated for 10 days with rilpivirine (2.5, 5, or 10 µM) or DMSO (0.1%) and incubated with 1.5 mL of cytokine-free H4230 medium ([…] Technologies, Inc., Vancouver, BC, Canada). After the incubation period, cells were stained with 300 µL/well of 3-(4,5-dimethylthiazol-2-yl)-2,5-diphenyltetrazolium bromide solution (0.5 mg/mL in PBS) (Sigma-Aldrich, St Louis, MO, USA) and incubated for 1 h. Colonies were then counted on an inverted microscope.

[7] = test system: HL-60 cells; test: Colony formation assay; type: cell-based, human; settings: 2.5, 5, or 10 µM, 10 days
Method: as §3

[8] = test system: Aurora A kinase signalling pathway proteins in HL-60 and NB4 cells; test: Western blotting, concentration series; type: cell-based, human; settings: 24 h
Method: (§4) Western blotting was performed following a method described previously. Briefly, 8 × 10^5 to 1 × 10^6 cells were seeded in petri dishes with 8 to 10 mL of culture medium and incubated overnight at 37 °C, 5% CO2. Then, the cells were treated with the test compounds and further incubated for the specified time point. Cells were then lysed using a lysis buffer containing protease inhibitors, and proteins were extracted by centrifugation. Protein concentrations were determined by using a Bio-Rad DC^TM protein assay kit (Bio-Rad Laboratories, Hercules, CA, USA). A total of 20–30 μg of proteins was loaded onto each well of 4–20% polyacrylamide gels for electrophoresis. Once electrophoresis was completed, gels were placed on pre-soaked polyvinylidene difluoride membranes and blocked with 10% skimmed milk in 1 × Tris-buffered saline and Tween (TBST). Then, the blots were incubated with primary antibodies, followed by washing with TBST for 4 × 20 min. After this, the blots were incubated with the appropriate horseradish peroxidase (HRP)-conjugated secondary antibody, followed by washing again with TBST for 4 × 20 min. The protein bands were then detected with either ECL prime (Amersham^TM ECL^TM prime Western blotting detection reagent) or ECL select (Amersham^TM ECL^TM select Western blotting detection reagent) depending on the abundance of the protein of interest. The blots were imaged using the Bio-Rad ChemiDoc^TM MP imaging system (Bio-Rad Laboratories, Hercules, CA, USA). All the primary and secondary antibodies used in this study were purchased from Cell Signaling Technology (Danvers, MA, USA).

[9] = test system: Aurora A kinase signalling pathway proteins in HL-60 cells; test: Western blotting, HL-60 time course and combination; type: cell-based, human; settings: 10 µM, time course
Method: as §4

[10] = test system: leukaemia cell lines (HL-60, NB4, K-562, and U-937); test: Resazurin cell viability assay, four cell lines; type: cell-based; settings: Homo sapiens; after 24, 48, or 72 h of treatment; read-out: GI50 values, range over all cell lines
Method: as §2

[11] = test system: caspase 3/7 in HL-60, NB4, K-562, and U-937 cells; test: Caspase-3/7 activity assay; type: cell-based, human; settings: 10 µM, 48 h, all cell lines
Method: Caspase-3/7 activity was measured after incubation of the cells with the test compounds for a specified time point using an Apo-ONE homogeneous caspase-3/7 kit (Promega, Madison, WI, USA) according to the manufacturer’s instructions. The signal was recorded by the EnVision multi-label plate reader (PerkinElmer, Beaconsfield, UK).

T1 sequence (P07948 whole entry): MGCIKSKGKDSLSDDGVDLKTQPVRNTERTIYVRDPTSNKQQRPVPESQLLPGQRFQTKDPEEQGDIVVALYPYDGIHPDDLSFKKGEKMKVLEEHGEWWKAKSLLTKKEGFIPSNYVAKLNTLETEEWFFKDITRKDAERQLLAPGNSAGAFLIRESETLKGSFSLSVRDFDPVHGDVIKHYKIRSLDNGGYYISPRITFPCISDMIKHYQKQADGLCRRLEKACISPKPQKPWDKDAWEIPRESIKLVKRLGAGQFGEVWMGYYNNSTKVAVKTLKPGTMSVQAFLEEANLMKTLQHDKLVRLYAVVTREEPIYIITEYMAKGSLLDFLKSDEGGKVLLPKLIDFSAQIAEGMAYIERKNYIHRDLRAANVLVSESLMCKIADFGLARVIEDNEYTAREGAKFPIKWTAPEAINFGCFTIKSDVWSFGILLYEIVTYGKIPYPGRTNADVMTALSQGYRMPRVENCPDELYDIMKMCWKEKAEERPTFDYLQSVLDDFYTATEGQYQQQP
T2 sequence (P07947 whole entry): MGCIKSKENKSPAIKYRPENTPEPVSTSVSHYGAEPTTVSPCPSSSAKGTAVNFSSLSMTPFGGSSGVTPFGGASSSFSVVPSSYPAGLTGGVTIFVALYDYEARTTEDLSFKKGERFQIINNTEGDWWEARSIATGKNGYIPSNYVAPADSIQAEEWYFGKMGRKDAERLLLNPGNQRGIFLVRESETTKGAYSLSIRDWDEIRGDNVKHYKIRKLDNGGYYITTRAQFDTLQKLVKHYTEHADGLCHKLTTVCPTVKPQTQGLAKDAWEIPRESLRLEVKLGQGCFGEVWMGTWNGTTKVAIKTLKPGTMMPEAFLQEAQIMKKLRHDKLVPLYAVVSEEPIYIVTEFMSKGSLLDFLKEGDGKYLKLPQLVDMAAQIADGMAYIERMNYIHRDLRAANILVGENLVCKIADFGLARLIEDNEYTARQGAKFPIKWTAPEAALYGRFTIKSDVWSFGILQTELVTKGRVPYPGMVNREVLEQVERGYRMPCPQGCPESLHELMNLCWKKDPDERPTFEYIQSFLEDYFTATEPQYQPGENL

## Cc1cc(/C=C/C#N)cc(C)c1Nc1ccnc(Nc2ccc(C#N)cc2)n1 [rilpivirine, (E)-4-((4-((4-(2-cyanoethenyl)-2,6-dimethylphenyl)amino)pyrimidin-2-yl)amino)benzonitrile]
[1]
  Ki: 0.93 µM
[2]
  Ki: 1.57 µM
[3]
  potency against PIM1 relative to Aurora A kinase: four-and-a-half-fold less potent
[4]; NB-4, 24 h
  GI50: 8.94 ± 1.02 µM
[4]; NB-4, 48 h
  GI50: 6.54 ± 0.83 µM
[4]; NB-4, 72 h
  GI50: 4.6 ± 0.35 µM
[5]; U-937, 24 h
  GI50: 12.1 ± 2.97 µM
[5]; U-937, 48 h
  GI50: 5.77 ± 1 µM
[5]; U-937, 72 h
  GI50: 4.79 ± 0.17 µM
[6]
  clonogenic growth: significantly decreased
[7]
  clonogenic growth: significantly decreased
[8]
  CDK1 level: reduced
  Cdc25C (Ser198) phosphorylation: inhibited
  PARP and caspase 3 cleavage: increased
  Plk1 (Thr210) phosphorylation: inhibited
  anti-apoptotic protein Mcl-1: down-regulation
  cyclin B1 level: reduced
  phospho-Histone H3 (Ser10): induced
  phosphorylation of CENP (Ser7): inhibited
  total Aurora A: without affecting
[8]; concentration-dependent
  auto-phosphorylation of Aurora A at Thr288: suppressed
[9]
  time from which PARP cleavage was detected: ≥ 12 h
  time of maximum induction of phospho-Histone H3 (Ser10): 18 h
  time until inhibition of Aurora-A autophosphorylation was evident: ≤ 6 h
[10]
  GI50: 4.12 to 12.4 µM
[11]
  caspase 3/7 activation vs untreated control: significantly increased
